The values that follow come from the supplement of paper PMC11208160.

A short description of this series: recombinant barcode read abundance after kanamycin selection (control-corrected) (log10(CPM+1)); higher = more efficient recombination; sequences stand for … in AGTGCAGAGAAAATCGGCCAGTTTTCTCTGCCTGCAGTCCGCATGCCGT…AGATTTATGCAGCGGACTGCCTTTCTCCCAAAGTGATAAACCGGACAGTATCATGGACCGGTTTTCCCGGTAATCCGTATTTGCAAGGTTGGTTTCACT; site = the 11-nt target. The method, boiled down:
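Duplicate cultures were plated either on chloramphenicol/ampicillin LB agar, serving as control, or on chloramphenicol/ampicillin/kanamycin with 0.1 mM IPTG. These came from a pooled E. coli library co-electroporated with a donor plasmid, each member pairing a target with an IS621 bridge RNA target-binding loop. Recombination efficiency equals averaged, control-corrected counts per million of recombinant-junction barcodes. It is listed as log10(CPM+1).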
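Also: IS621 recombinase and bridge RNA in Escherichia coli cells.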

“GAATCTTCTTGGGTTCTAACCTGTTGCTT (site GAATCTTCTAA)”: the “recombinant barcode read abundance (log10)” value came out at 0.0983.

With “GACAAACCTTGGGTTCTAACCTGTTGCGG (site GACAAACCTCC)”, the “recombinant barcode read abundance (log10)” value was found to be 1.64.

As for “GACAAACCTTGGGTTCTAACCTGTTGCGG (site GACACAACTCC)”, the “recombinant barcode read abundance (log10)” value worked out at 0.0381.

“GACACAACTTGGGTTCTAACCTGTTGCGG (site GACAAACCTCC)”: the “recombinant barcode read abundance (log10)” value turned out to be 0.0119.

For “GACACAACTTGGGTTCTAACCTGTTGCGG (site GACACAACTCC)”, the “recombinant barcode read abundance (log10)” value was determined as 1.14.

As for “GACACACCTTGGGTTCTAACCTGTTGCAT (site GACACACCTAT)”, the “recombinant barcode read abundance (log10)” value was 1.02.

Consider “GACACACCTTGGGTTCTAACCTGTTGCAT (site GTCACGCCTAT)”, for which the “recombinant barcode read abundance (log10)” value was found to be 0.0207.

As for “GACACCTCTTGGGTTCTAACCTGTTGCCG (site GACACCTCTCG)”, the “recombinant barcode read abundance (log10)” value is 1.12.

Take “GACACCTCTTGGGTTCTAACCTGTTGCCG (site TCTGAAACTAA)”: the “recombinant barcode read abundance (log10)” value worked out at 0.157.

Consider “GACACCTCTTGGGTTCTAACCTGTTGCTT (site GACACCTCTAA)”, for which the “recombinant barcode read abundance (log10)” value came out at 1.03.

Turning to “GACACCTCTTGGGTTCTAACCTGTTGCTT (site GACACGTCTAG)”, the “recombinant barcode read abundance (log10)” value was 0.461.

Consider “GACACGCCTTGGGTTCTAACCTGTTGCTT (site GACACGCCTAA)”, for which the “recombinant barcode read abundance (log10)” value was 0.201.

Turning to “GACACGCCTTGGGTTCTAACCTGTTGCTT (site GACACGCCTAC)”, the “recombinant barcode read abundance (log10)” value stood at 0.0239.

In the case of “GACACGCCTTGGGTTCTAACCTGTTGCTT (site GACACGCCTAG)”, the “recombinant barcode read abundance (log10)” value came out at 0.0922.

As to “GACACGCCTTGGGTTCTAACCTGTTGCTT (site GACACGCCTAT)”, the “recombinant barcode read abundance (log10)” value was found to be 0.0718.

With “GACACTGCTTGGGTTCTAACCTGTTGCCT (site GAAACTGCTAG)”, the “recombinant barcode read abundance (log10)” value came out at 0.274.

Turning to “GACACTGCTTGGGTTCTAACCTGTTGCCT (site GACACTGCTAG)”, the “recombinant barcode read abundance (log10)” value was 0.403.

For the sequence “GACACTGCTTGGGTTCTAACCTGTTGCCT (site GAGACTGCTAG)”, the “recombinant barcode read abundance (log10)” value came out at 0.044.

For the sequence “GACACTGCTTGGGTTCTAACCTGTTGCCT (site GATACTGCTAG)”, the “recombinant barcode read abundance (log10)” value was found to be 0.233.

As to “GACAGGCCTTGGGTTCTAACCTGTTGCGT (site CTGCTAGCTCT)”, the “recombinant barcode read abundance (log10)” value came to 0.278.

As for “GACAGGCCTTGGGTTCTAACCTGTTGCGT (site GACAGGCCTAC)”, the “recombinant barcode read abundance (log10)” value worked out at 1.31.

Consider “GACATACCTTGGGTTCTAACCTGTTGCCT (site GACATACCTAG)”, for which the “recombinant barcode read abundance (log10)” value came to 0.794.

Take “GACATACCTTGGGTTCTAACCTGTTGCCT (site GACCTACCTAG)”: the “recombinant barcode read abundance (log10)” value came to 0.273.

Consider “GACATACCTTGGGTTCTAACCTGTTGCCT (site GACGTACCTAG)”, for which the “recombinant barcode read abundance (log10)” value turned out to be 0.412.

For the sequence “GACATACCTTGGGTTCTAACCTGTTGCCT (site GACTTACCTAG)”, the “recombinant barcode read abundance (log10)” value stood at 0.251.

Consider “GACATCGCTTGGGTTCTAACCTGTTGCCT (site GACATCACTAG)”, for which the “recombinant barcode read abundance (log10)” value stood at 0.0851.

On to “GACATCGCTTGGGTTCTAACCTGTTGCCT (site GACATCCCTAG)”, for which the “recombinant barcode read abundance (log10)” value was 0.0326.

Consider “GACATCGCTTGGGTTCTAACCTGTTGCCT (site GACATCGCTAG)”, for which the “recombinant barcode read abundance (log10)” value is 1.64.

Take “GACATCGCTTGGGTTCTAACCTGTTGCCT (site GACATCTCTAG)”: the “recombinant barcode read abundance (log10)” value was found to be 0.641.

As for “GACCACTCTTGGGTTCTAACCTGTTGCCT (site AACCACTCTAG)”, the “recombinant barcode read abundance (log10)” value was 1.4.

Regarding “GACCACTCTTGGGTTCTAACCTGTTGCCT (site CACCACTCTAG)”, the “recombinant barcode read abundance (log10)” value was 1.2.

Consider “GACCACTCTTGGGTTCTAACCTGTTGCCT (site GACCACTCTAG)”, for which the “recombinant barcode read abundance (log10)” value came to 2.39.

On to “GACCACTCTTGGGTTCTAACCTGTTGCCT (site TACCACTCTAG)”, for which the “recombinant barcode read abundance (log10)” value was found to be 1.42.

As to “GACCAGCCTTGGGTTCTAACCTGTTGCAT (site GACCAGCCTAA)”, the “recombinant barcode read abundance (log10)” value stood at 0.106.

For “GACCAGCCTTGGGTTCTAACCTGTTGCAT (site GACCAGCCTAC)”, the “recombinant barcode read abundance (log10)” value is 0.74.

For “GACCAGCCTTGGGTTCTAACCTGTTGCAT (site GACCAGCCTAG)”, the “recombinant barcode read abundance (log10)” value was 0.466.

In the case of “GACCAGCCTTGGGTTCTAACCTGTTGCAT (site GACCAGCCTAT)”, the “recombinant barcode read abundance (log10)” value came to 1.82.

For “GACCAGCCTTGGGTTCTAACCTGTTGCGT (site GACCAGCCTAA)”, the “recombinant barcode read abundance (log10)” value was 0.104.

For “GACCAGCCTTGGGTTCTAACCTGTTGCGT (site GACCAGCCTAC)”, the “recombinant barcode read abundance (log10)” value was determined as 2.4.

Take “GACCAGCCTTGGGTTCTAACCTGTTGCGT (site GACCAGCCTAG)”: the “recombinant barcode read abundance (log10)” value came to 0.266.

Take “GACCAGCCTTGGGTTCTAACCTGTTGCGT (site GACCAGCCTAT)”: the “recombinant barcode read abundance (log10)” value amounted to 1.32.

With “GACCAGCCTTGGGTTCTAACCTGTTGCTT (site GACCAGCCTAA)”, the “recombinant barcode read abundance (log10)” value stood at 1.59.

Take “GACCAGCCTTGGGTTCTAACCTGTTGCTT (site GACCAGCCTAC)”: the “recombinant barcode read abundance (log10)” value was determined as 0.994.

With “GACCAGCCTTGGGTTCTAACCTGTTGCTT (site GACCAGCCTAG)”, the “recombinant barcode read abundance (log10)” value was 1.29.

On to “GACCAGCCTTGGGTTCTAACCTGTTGCTT (site GACCAGCCTAT)”, for which the “recombinant barcode read abundance (log10)” value is 0.746.

“GACCCACCTTGGGTTCTAACCTGTTGCCT (site AACCCACCTAG)”: the “recombinant barcode read abundance (log10)” value came to 1.64.

With “GACCCACCTTGGGTTCTAACCTGTTGCCT (site CACCCACCTAG)”, the “recombinant barcode read abundance (log10)” value was 0.814.

“GACCCACCTTGGGTTCTAACCTGTTGCCT (site GACCCACCTAG)”: the “recombinant barcode read abundance (log10)” value worked out at 1.76.

Take “GACCCACCTTGGGTTCTAACCTGTTGCCT (site TACCCACCTAG)”: the “recombinant barcode read abundance (log10)” value turned out to be 1.4.

For the sequence “GACCCATCTTGGGTTCTAACCTGTTGCCT (site GACACAACTAG)”, the “recombinant barcode read abundance (log10)” value came out at 0.0316.

On to “GACCCATCTTGGGTTCTAACCTGTTGCCT (site GACCCATCTAG)”, for which the “recombinant barcode read abundance (log10)” value was 0.683.

“GACCGCGCTTGGGTTCTAACCTGTTGCCT (site GACCGAGCTAG)”: the “recombinant barcode read abundance (log10)” value came out at 0.672.

Regarding “GACCGCGCTTGGGTTCTAACCTGTTGCCT (site GACCGCGCTAG)”, the “recombinant barcode read abundance (log10)” value came to 1.05.

As to “GACCGCGCTTGGGTTCTAACCTGTTGCCT (site GACCGGGCTAG)”, the “recombinant barcode read abundance (log10)” value was found to be 0.0432.

In the case of “GACCGCGCTTGGGTTCTAACCTGTTGCCT (site GACCGTGCTAG)”, the “recombinant barcode read abundance (log10)” value came to 0.0542.

For “GACCGGACTTGGGTTCTAACCTGTTGCGT (site GACCGGACTAC)”, the “recombinant barcode read abundance (log10)” value is 2.44.

As to “GACCGGACTTGGGTTCTAACCTGTTGCGT (site GAGTGGACTAC)”, the “recombinant barcode read abundance (log10)” value stood at 0.0356.

For the sequence “GACGAAGCTTGGGTTCTAACCTGTTGCCT (site GACGAAGCTAG)”, the “recombinant barcode read abundance (log10)” value stood at 0.348.

With “GACGAAGCTTGGGTTCTAACCTGTTGCCT (site TCCGAAGCTAG)”, the “recombinant barcode read abundance (log10)” value was 0.0613.
